Experimental data taken from patent US7585833B2, “Malodor covering perfumery” (Givaudan Fragrances Corporation, priority 2005, dated 2009).

Experiments:
[1] = cited from earlier work; for ODT (ppb): odor detection threshold, Table 3
[2] = Stability and malodor coverage evaluation of odorants in permanent hair color crème (10% ammonia); design: key to malodor coverage rating 1 Week RT / malodor coverage rating 1 Week Oven / malodor coverage rating 6 Weeks RT / malodor coverage rating 6 Weeks Oven / malodor coverage rating 2 Weeks RT / malodor coverage rating 2 Weeks Oven / malodor coverage rating 3 Weeks RT / malodor coverage rating 3 Weeks Oven / malodor coverage rating 4 Weeks RT / malodor coverage rating 4 Weeks Oven / malodor coverage rating 5 Weeks RT / malodor coverage rating 5 Weeks Oven: E: excellent; VG: very good; G: good coverage; key to odorant performance 1 Week RT / odorant performance 1 Week Oven / odorant performance 2 Weeks RT / odorant performance 2 Weeks Oven / odorant performance 3 Weeks RT / odorant performance 3 Weeks Oven / odorant performance 4 Weeks RT / odorant performance 4 Weeks Oven: E=excellent; VG=very good; G=good; F=fair; P=poor; conditions: for odorant performance 1 Week Oven / odorant performance 1 Week RT / odorant performance 2 Weeks Oven / odorant performance 2 Weeks RT / odorant performance 3 Weeks Oven / odorant performance 3 Weeks RT / odorant performance 4 Weeks Oven / odorant performance 4 Weeks RT: odorant at 0.2% in dye less permanent hair color crème (10% ammonia hydroxide); for odorant performance 1 Week Oven / odorant performance 2 Weeks Oven / odorant performance 3 Weeks Oven / odorant performance 4 Weeks Oven: oven temperature; for odorant performance 1 Week RT / odorant performance 2 Weeks RT / odorant performance 3 Weeks RT / odorant performance 4 Weeks RT / malodor coverage rating 1 Week RT / malodor coverage rating 2 Weeks RT / malodor coverage rating 3 Weeks RT / malodor coverage rating 4 Weeks RT / malodor coverage rating 5 Weeks RT / malodor coverage rating 6 Weeks RT: room temperature; for stability observation in the formulation: odorant at 0.2% in permanent hair color crème (10% ammonia hydroxide), remark beside the raw material; for malodor coverage rating 1 Week Oven / malodor coverage rating 1 Week RT / malodor coverage rating 2 Weeks Oven / malodor coverage rating 2 Weeks RT / malodor coverage rating 3 Weeks Oven / malodor coverage rating 3 Weeks RT / malodor coverage rating 4 Weeks Oven / malodor coverage rating 4 Weeks RT / malodor coverage rating 5 Weeks Oven / malodor coverage rating 5 Weeks RT / malodor coverage rating 6 Weeks Oven / malodor coverage rating 6 Weeks RT: 10% ammonia formulation; for malodor coverage rating 1 Week Oven / malodor coverage rating 2 Weeks Oven / malodor coverage rating 3 Weeks Oven / malodor coverage rating 4 Weeks Oven / malodor coverage rating 5 Weeks Oven / malodor coverage rating 6 Weeks Oven: oven at 37° C.
Excerpt: The marks E, VG, G stand for excellent, very good and good coverage and are part of a 5 scale rating system. […] Odorants were put up at 0.2% in the formulation, and odorants were subjected to 6 week stability testing at room temperature (R.T.) and […] oven temperature. […] G=good, F=fair; P=poor).

CC12CCC(CC1)C(C)(C)O2 [1,3,3-trimethyl-2-oxabicyclo[2.2.2]octane]
less than 50 ppb: ODT (ppb) [1]

CC(C)=CCCC(C)C=O (stereo not shown) [2,6-dimethyl-5-heptenal]
less than 50 ppb: ODT (ppb) [1]

CCCCCC(=O)CC [3-octanone]
less than 50 ppb: ODT (ppb) [1]

C=CCOC(=O)COCCC(C)C [ALLYL AMYL GLYCOLATE]
F: odorant performance 2 Weeks Oven [2] | odorant performance 3 Weeks Oven [2] | odorant performance 4 Weeks Oven [2]
G: odorant performance 1 Week Oven [2] | odorant performance 1 Week RT [2] | odorant performance 2 Weeks RT [2] | odorant performance 3 Weeks RT [2] | odorant performance 4 Weeks RT [2]

O=C(OCc1ccccc1)c1ccccc1O [BENZYL SALICYLATE]
G: odorant performance 1 Week Oven [2] | odorant performance 1 Week RT [2] | odorant performance 2 Weeks Oven [2] | odorant performance 2 Weeks RT [2]
F: odorant performance 3 Weeks Oven [2] | odorant performance 3 Weeks RT [2] | odorant performance 4 Weeks Oven [2] | odorant performance 4 Weeks RT [2]

CCOC(=O)CC(C)=O [ETHYL ACETOACETATE]
ETHYL ACETOACETATE (discolors in oven): stability observation in the formulation [2]
F: odorant performance 1 Week Oven [2] | odorant performance 1 Week RT [2] | odorant performance 2 Weeks Oven [2] | odorant performance 2 Weeks RT [2] | odorant performance 3 Weeks Oven [2] | odorant performance 3 Weeks RT [2] | odorant performance 4 Weeks Oven [2] | odorant performance 4 Weeks RT [2]

CCc1ccc(CC(C)(C)C=O)cc1 [FLORALOZONE]
G: odorant performance 1 Week Oven [2] | odorant performance 1 Week RT [2] | odorant performance 2 Weeks Oven [2] | odorant performance 2 Weeks RT [2] | odorant performance 3 Weeks Oven [2] | odorant performance 3 Weeks RT [2] | odorant performance 4 Weeks Oven [2] | odorant performance 4 Weeks RT [2]

CC(C)CC1CC(C)(O)CCO1 (stereo not shown) [FLOROL]
P: odorant performance 2 Weeks Oven [2] | odorant performance 2 Weeks RT [2] | odorant performance 3 Weeks Oven [2] | odorant performance 3 Weeks RT [2] | odorant performance 4 Weeks Oven [2] | odorant performance 4 Weeks RT [2]
F: odorant performance 1 Week Oven [2] | odorant performance 1 Week RT [2]

CC1COCc2cc3c(cc21)C(C)(C)C(C)C3(C)C (stereo not shown) [Galaxolide, 1,3,4,6,7,8-Hexahydro-4,6,6,7,8,8-hexamethylcyclopenta-γ-2-benzopyran]
G: malodor coverage rating 3 Weeks Oven [2] | malodor coverage rating 3 Weeks RT [2] | malodor coverage rating 4 Weeks Oven [2] | malodor coverage rating 4 Weeks RT [2] | malodor coverage rating 5 Weeks Oven [2] | malodor coverage rating 5 Weeks RT [2] | malodor coverage rating 6 Weeks Oven [2] | malodor coverage rating 6 Weeks RT [2]
VG: malodor coverage rating 2 Weeks Oven [2] | malodor coverage rating 2 Weeks RT [2]
E: malodor coverage rating 1 Week Oven [2] | malodor coverage rating 1 Week RT [2]

CCCCCCC(C=O)=Cc1ccccc1 [Hexyl cinnamic aldehyde]
G: odorant performance 1 Week Oven [2] | odorant performance 1 Week RT [2] | odorant performance 2 Weeks Oven [2] | odorant performance 2 Weeks RT [2] | odorant performance 3 Weeks Oven [2] | odorant performance 3 Weeks RT [2] | odorant performance 4 Weeks Oven [2] | odorant performance 4 Weeks RT [2]
HEXYL CINNAMIC ALDEHYDE (cloudy): stability observation in the formulation [2]

C=CC(C)(O)CCC=C(C)C (stereo not shown) [LINALOOL SYNTHETIC, LINALOOL]
G: odorant performance 1 Week Oven [2] | odorant performance 1 Week RT [2] | odorant performance 2 Weeks Oven [2] | odorant performance 2 Weeks RT [2] | odorant performance 3 Weeks Oven [2] | odorant performance 3 Weeks RT [2] | odorant performance 4 Weeks Oven [2] | odorant performance 4 Weeks RT [2]

CC(C=O)Cc1ccc(C(C)(C)C)cc1 (stereo not drawn) [Lilial, p-t-Butyl-α-methylhydrocinnamic aldehyde]
G: odorant performance 1 Week Oven [2] | odorant performance 1 Week RT [2] | odorant performance 2 Weeks Oven [2] | odorant performance 2 Weeks RT [2] | odorant performance 3 Weeks Oven [2] | odorant performance 3 Weeks RT [2] | odorant performance 4 Weeks Oven [2] | odorant performance 4 Weeks RT [2]

CC1CC=CCCCCCCCCCC(=O)C1 (stereo not shown) [MUSCENONE @ 10% DPG]
F: odorant performance 1 Week Oven [2] | odorant performance 1 Week RT [2] | odorant performance 2 Weeks Oven [2] | odorant performance 2 Weeks RT [2] | odorant performance 3 Weeks Oven [2] | odorant performance 3 Weeks RT [2] | odorant performance 4 Weeks Oven [2] | odorant performance 4 Weeks RT [2]

CCC/C=C/C=O [TRANS-2-HEXENAL @ 10% DPG, TRANS-2-HEXENAL]
F: odorant performance 1 Week Oven [2] | odorant performance 2 Weeks Oven [2] | odorant performance 3 Weeks Oven [2] | odorant performance 4 Weeks Oven [2] | odorant performance 4 Weeks RT [2]
G: odorant performance 1 Week RT [2] | odorant performance 2 Weeks RT [2] | odorant performance 3 Weeks RT [2]

CC/C=C\CCOC(C)=O [cis-3-hexenyl acetate]
F: odorant performance 3 Weeks Oven [2] | odorant performance 3 Weeks RT [2] | odorant performance 4 Weeks Oven [2] | odorant performance 4 Weeks RT [2]
G: odorant performance 1 Week Oven [2] | odorant performance 1 Week RT [2] | odorant performance 2 Weeks Oven [2] | odorant performance 2 Weeks RT [2]

CC/C=C\CCOC(=O)OC [cis-3-hexenyl methyl carbonate]
less than 50 ppb: ODT (ppb) [1]

CC/C=C\CCC=O [cis-4-heptenal]
less than 50 ppb: ODT (ppb) [1]

CCOC(=O)CC1(C)OCCO1 [ethyl 2-methyl-1,3-dioxolane-2-acetate]
less than 50 ppb: ODT (ppb) [1]

CCCC(C)C(=O)OCC (stereo not shown) [ethyl 2-methylpentanoate]
less than 50 ppb: ODT (ppb) [1]

CCOC(=O)CC(C)C [ethyl 3-methylbutanoate]
less than 50 ppb: ODT (ppb) [1]

CCCC(=O)OCC [ethyl butyrate]
less than 50 ppb: ODT (ppb) [1]

CCCCCC(=O)OCC [ethyl hexanoate]
less than 50 ppb: ODT (ppb) [1]

CCOC(=O)CC [ethyl propionate]
less than 50 ppb: ODT (ppb) [1]

CCOC(=O)C(C)CC (stereo not shown) [ethyl-2-methylbutyrate]
less than 50 ppb: ODT (ppb) [1]

CCCCCC=O [hexanal]
less than 50 ppb: ODT (ppb) [1]

CCCCCCOC(C)=O [hexyl acetate]
less than 50 ppb: ODT (ppb) [1]

COC(=O)C=C1CCCC1 [methyl cyclopentylidene acetate]
less than 50 ppb: ODT (ppb) [1]

CCCCCCOC [methyl hexyl ether]
less than 50 ppb: ODT (ppb) [1]

CCCCCOC(C)=O [pentyl acetate]
less than 50 ppb: ODT (ppb) [1]

CCCOC(=O)CCC [propyl butyrate]
less than 50 ppb: ODT (ppb) [1]

CC=CC(=O)C1=C(C)CCCC1(C)C [β-damascone, β-1-(2,6,6-trimethyl-1-cyclohexen-1-yl)-2-buten-1-one]
E: malodor coverage rating 1 Week RT [2] | malodor coverage rating 2 Weeks RT [2] | odorant performance 1 Week RT [2] | odorant performance 2 Weeks RT [2]
VG: malodor coverage rating 1 Week Oven [2] | malodor coverage rating 2 Weeks Oven [2] | malodor coverage rating 3 Weeks RT [2] | malodor coverage rating 4 Weeks RT [2] | malodor coverage rating 5 Weeks RT [2] | odorant performance 1 Week Oven [2] | odorant performance 2 Weeks Oven [2] | odorant performance 3 Weeks RT [2] | odorant performance 4 Weeks RT [2]
0.09 parts per billion: odor detection threshold value in water ([1]; in water)
G: malodor coverage rating 3 Weeks Oven [2] | malodor coverage rating 4 Weeks Oven [2] | malodor coverage rating 5 Weeks Oven [2] | malodor coverage rating 6 Weeks Oven [2] | malodor coverage rating 6 Weeks RT [2] | odorant performance 3 Weeks Oven [2] | odorant performance 4 Weeks Oven [2]

CCC(C)COC(C)=O (stereo not drawn) [β-methyl butyl acetate]
less than 50 ppb: ODT (ppb) [1]
